# Source: PMC12044090 (EJNMMI Research, 2025)
# Biological target: T1, FAP (HT1080-hFAP cells) (Homo sapiens, UniProt Q12884)
# T1 sequence (Q12884 1-760): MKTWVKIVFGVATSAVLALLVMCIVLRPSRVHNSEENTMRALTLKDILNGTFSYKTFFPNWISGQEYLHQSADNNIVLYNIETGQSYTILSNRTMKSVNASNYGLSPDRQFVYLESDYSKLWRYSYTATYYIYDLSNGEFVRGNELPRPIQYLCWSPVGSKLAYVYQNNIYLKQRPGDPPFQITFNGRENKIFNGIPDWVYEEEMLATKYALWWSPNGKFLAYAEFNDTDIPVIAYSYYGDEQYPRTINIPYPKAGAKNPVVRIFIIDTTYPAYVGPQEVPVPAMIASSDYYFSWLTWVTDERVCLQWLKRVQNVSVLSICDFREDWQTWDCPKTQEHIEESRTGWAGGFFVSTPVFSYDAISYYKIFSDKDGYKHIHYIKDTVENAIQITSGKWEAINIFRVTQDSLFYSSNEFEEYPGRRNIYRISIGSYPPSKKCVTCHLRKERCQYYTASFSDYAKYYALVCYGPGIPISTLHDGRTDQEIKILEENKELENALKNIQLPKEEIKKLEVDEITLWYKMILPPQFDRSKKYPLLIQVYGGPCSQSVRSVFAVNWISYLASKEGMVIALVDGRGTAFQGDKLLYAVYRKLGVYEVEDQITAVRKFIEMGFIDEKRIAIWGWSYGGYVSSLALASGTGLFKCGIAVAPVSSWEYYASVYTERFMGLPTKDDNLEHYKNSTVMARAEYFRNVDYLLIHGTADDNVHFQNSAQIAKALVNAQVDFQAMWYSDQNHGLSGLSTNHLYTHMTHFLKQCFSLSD
# Assay: Affinity assay: competition against [68Ga]Ga-FAP2286 in HT1080-hFAP cells
# Format: binding
row,Compound,IC50
1,CCCCCC(=O)N[C@H]1CSCc2cc(CSCCNC(=O)CCCCCNC(=O)CC[C@H](NC(=O)CCC(C(=O)O)N3CCN(CC(=O)O)CCN(CC(=O)O)CCN(CC(=O)O)CC3)C(=O)NCCCOc3ccc4nccc(C(=O)NCC(=O)N5CC(F)(F)C[C@H]5C#N)c4c3)cc(c2)CSC[C@@H](C(=O)O)NC(=O)[C@H](Cc2ccccc2)NC(=O)[C@H](CCC(N)=O)NC(=O)[C@H]([C@@H](C)O)NC(=O)[C@@H]2CCCN2C(=O)[C@@H]2CCCN2C1=O (some centres unmarked) [BiFAPI],11.4 ± 1.66 nM
2,CCCCCC(=O)N[C@H]1CSCc2cc(CSCCNC(=O)CN3CCN(CC(=O)O)CCN(CC(=O)O)CCN(CC(=O)O)CC3)cc(c2)CSC[C@@H](C(=O)O)NC(=O)[C@H](Cc2ccccc2)NC(=O)[C@H](CCC(N)=O)NC(=O)[C@H]([C@@H](C)O)NC(=O)[C@@H]2CCCN2C(=O)[C@@H]2CCCN2C1=O [FAP2286],6.58 ± 1.6 nM
